Molecules are shown by their SMILES. Bridge positions count the residues as written; N and C are the ends. Square brackets hold non-standard residues; d marks the D form. Peptide text beside a SMILES is read from it. * marks the point of attachment. ξ: configuration not given here. Phe(4-COOH) = N[C@@H](Cc1ccc(C(=O)O)cc1)C(=O)O; Bip = N[C@@H](Cc1ccc(-c2ccccc2)cc1)C(=O)O; Phe(3-Me) = Cc1cccc(C[C@H](N)C(=O)O)c1; Val(3-OH) = CC(C)(O)[C@H](N)C(=O)O; hArg = N=C(N)NCCCC[C@H](N)C(=O)O; 4Pal = N[C@@H](Cc1ccncc1)C(=O)O; Cha = N[C@@H](CC1CCCCC1)C(=O)O; Cit = NC(=O)NCCC[C@H](N)C(=O)O; Ile(3ξ) = CCC(C)[C@H](N)C(=O)O; Thr(3ξ) = CC(O)[C@H](N)C(=O)O; dCba = N[C@H](CC1CCC1)C(=O)O; 12Ado = NCCCCCCCCCCCC(=O)O; Carboxymethyl = O=C(O)C*; Orn = NCCC[C@H](N)C(=O)O; Aun = NCCCCCCCCCCC(=O)O; Dab = NCC[C@H](N)C(=O)O; Dap = NC[C@H](N)C(=O)O; AEEA = NCCOCCOCC(=O)O

The text below walks through data of patent publication US20260022142A1, “MACROCYCLIC IMMUNOMODULATORS” (Bristol-Myers Squibb Company, priority 2022, published 2026).

T1 sequence (Q15116 25-288): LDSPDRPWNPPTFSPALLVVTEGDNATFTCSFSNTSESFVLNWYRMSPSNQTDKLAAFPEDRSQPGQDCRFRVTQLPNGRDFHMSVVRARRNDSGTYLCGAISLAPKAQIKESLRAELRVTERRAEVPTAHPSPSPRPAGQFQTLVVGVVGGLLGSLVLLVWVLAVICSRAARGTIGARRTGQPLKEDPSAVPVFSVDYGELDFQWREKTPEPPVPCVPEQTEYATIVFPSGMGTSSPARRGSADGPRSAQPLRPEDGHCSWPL

The experiment has as its target T1, PD-1/PD-L1 interaction (PE-labeled human PD-L1-Ig binding to Jurkat cell line over-expressing human PD-1) (Homo sapiens, UniProt Q15116).
T1 construct: expressed in transfected cells; host or cells: Jurkat
As to the kind of experiment: Jurkat-PD-1 Cell Binding High-Content Screening Assay (CBA). It counts as cell-based. As to conditions: Jurkat cell line over-expressing human PD-1; PE-labeled PD-L1-Ig 20 nM final; read-out: Jurkat hPD1-PDL1 IC50. Summed up:
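Binding of fluorescent PD-L1-Ig (20 nM final) to Jurkat-PD-1 cells was measured by automated imaging after 1 h, following a 2 h compound pre-treatment at 37° C.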
One may read the IC50 as the concentration that inhibits the measured activity by half. Take `Cc1cccc(C[C@@H]2NC(=O)[C@H](CC(=O)O)NC(=O)[C@H](Cc3ccc(OCC(=O)O)cc3)NC(=O)[C@H](C(C)O)NC(=O)CSC[C@@H](C(=O)N[C@H](CC(N)=O)C(=O)NCCCCCCCCCCC(=O)O)NC(=O)[C@H](C(C)O)NC(=O)[C@H](C(C)C)NC(=O)[C@H](CC3CCCCC3)NC(=O)[C@H](CCN)NC(=O)[C@@H](CC(C)C)NC(=O)[C@H](CCCN)NC(=O)[C@H](Cc3ccc(C(=O)O)cc3)NC(=O)[C@H](Cc3ccc(-c4ccccc4)cc3)NC(=O)[C@H](Cc3ccc(C(=O)O)cc3)NC2=O)c1` (stereo partly drawn) [Compound 3500] ({CH2CO}-[Thr(3ξ)]Y(Carboxymethyl)D[Phe(3-Me)][Phe(4-COOH)][Bip][Phe(4-COOH)][Orn][dL][Dab][Cha]V[Thr(3ξ)]C[dN][Aun]-OH; thioether N-14): the IC50 amounted to 5.2 nM.

Regarding `Cc1cccc(C[C@@H]2NC(=O)[C@H](CC(=O)O)NC(=O)[C@H](Cc3ccc(OCC(=O)O)cc3)NC(=O)[C@H](CN)NC(=O)CSC[C@@H](C(=O)N[C@@H](CO)C(=O)N[C@@H](CO)C(=O)NCCCCCCCCCCC(=O)O)NC(=O)[C@H]([C@@H](C)O)NC(=O)[C@H](C(C)C)NC(=O)[C@H](CC3CCCCC3)NC(=O)[C@H](CCN)NC(=O)[C@@H](CC(C)C)NC(=O)[C@H](CCCN)NC(=O)[C@H](CCCNC(N)=O)NC(=O)[C@H](Cc3ccc(-c4ccccc4)cc3)NC(=O)[C@H](C(C)C)NC2=O)c1` [Compound 2852] ({CH2CO}-[Dap]Y(Carboxymethyl)D[Phe(3-Me)]V[Bip][Cit][Orn][dL][Dab][Cha]VTCSS[Aun]-OH; thioether N-14), the IC50 was 21 nM.

With `Cc1cccc(C[C@@H]2NC(=O)[C@H](CC(=O)O)NC(=O)[C@H](Cc3ccc(OCC(=O)O)cc3)NC(=O)[C@H](Cc3ccc(OCC(=O)O)cc3)NC(=O)CSC[C@@H](C(=O)N[C@@H](CCCCN)C(=O)NCCCCCCCCCCC(=O)O)NC(=O)[C@H](CO)NC(=O)[C@H](C(C)C)NC(=O)[C@H](CC3CCCCC3)NC(=O)[C@H](CCN)NC(=O)[C@@H](CC(C)C)NC(=O)[C@H](CCCN)NC(=O)[C@H](C(C)C)NC(=O)[C@H](Cc3ccc(-c4ccccc4)cc3)NC(=O)[C@H](CC(C)C)NC2=O)c1` [Compound 1058] ({CH2CO}-Y(Carboxymethyl)Y(Carboxymethyl)D[Phe(3-Me)]L[Bip]V[Orn][dL][Dab][Cha]VSCK[Aun]-OH; thioether N-14), the IC50 is 57.2 nM.

Regarding `Cc1cccc(C[C@@H]2NC(=O)[C@H](CC(=O)O)NC(=O)[C@H](Cc3ccc(OCC(=O)O)cc3)NC(=O)[C@H](CCCCNC(=N)N)NC(=O)CSC[C@@H](C(=O)N[C@H](CCC(=O)O)C(=O)NCCCCCCCCCCCC(=O)O)NC(=O)[C@H](C(C)O)NC(=O)[C@H](C(C)C)NC(=O)[C@H](CC3CCCCC3)NC(=O)[C@H](CCN)NC(=O)[C@@H](CC(C)C)NC(=O)[C@H](CCCN)NC(=O)[C@H](CCCNC(N)=O)NC(=O)[C@H](Cc3ccc(-c4ccccc4)cc3)NC(=O)[C@H](C(C)C)NC2=O)c1` (stereo partly drawn) [Compound 3552] ({CH2CO}-[hArg]Y(Carboxymethyl)D[Phe(3-Me)]V[Bip][Cit][Orn][dL][Dab][Cha]V[Thr(3ξ)]C[dE][12Ado]-OH; thioether N-14), the IC50 was 20.5 nM.

For `Cc1cccc(C[C@@H]2NC(=O)[C@H](CC(=O)O)NC(=O)[C@H](Cc3ccc(OCC(=O)O)cc3)NC(=O)[C@H](CCCNC(=N)N)NC(=O)CSC[C@@H](C(=O)N[C@@H](CCN)C(=O)NCCCCCCCCCCC(=O)O)NC(=O)[C@H](CO)NC(=O)[C@H](C(C)C)NC(=O)[C@H](CC3CCCCC3)NC(=O)[C@H](CCN)NC(=O)[C@@H](CC(C)C)NC(=O)[C@H](CCCN)NC(=O)[C@H](Cc3ccc(OCC(=O)O)cc3)NC(=O)[C@H](Cc3ccc(-c4ccccc4)cc3)NC(=O)[C@H](C(C)(C)O)NC2=O)c1` [Compound 2110] ({CH2CO}-RY(Carboxymethyl)D[Phe(3-Me)][Val(3-OH)][Bip]Y(Carboxymethyl)[Orn][dL][Dab][Cha]VSC[Dab][Aun]-OH; thioether N-14), the IC50 is 24.1 nM.

As to `Cc1cccc(C[C@@H]2NC(=O)[C@H](CC(=O)O)NC(=O)[C@H](Cc3ccc(OCC(=O)O)cc3)NC(=O)[C@H](Cc3ccncc3)NC(=O)CSC[C@@H](C(=O)N[C@@H](CCN)C(=O)NCCCCCCCCCCC(=O)O)NC(=O)[C@H](CO)NC(=O)[C@H](C(C)(C)O)NC(=O)[C@H](CC3CCCCC3)NC(=O)[C@H](CCN)NC(=O)[C@@H](CC(C)C)NC(=O)[C@H](CCCN)NC(=O)[C@H](Cc3ccc(C(=O)O)cc3)NC(=O)[C@H](Cc3ccc(-c4ccccc4)cc3)NC(=O)[C@H](Cc3ccc(C(=O)O)cc3)NC2=O)c1` [Compound 3712] ({CH2CO}-[4Pal]Y(Carboxymethyl)D[Phe(3-Me)][Phe(4-COOH)][Bip][Phe(4-COOH)][Orn][dL][Dab][Cha][Val(3-OH)]SC[Dab][Aun]-OH; thioether N-14), the IC50 was determined as 129 nM.

For `Cc1cccc(C[C@@H]2NC(=O)[C@H](CC(=O)O)NC(=O)[C@H](Cc3ccc(OCC(=O)O)cc3)NC(=O)[C@H](CN)NC(=O)CSC[C@@H](C(=O)N[C@@H](CCN)C(=O)NCCCCCCCCCCC(=O)O)NC(=O)[C@H](CCCCN)NC(=O)[C@H](C(C)C)NC(=O)[C@H](CC3CCCCC3)NC(=O)[C@H](CCN)NC(=O)[C@@H](CC3CCC3)NC(=O)[C@H](CCCN)NC(=O)[C@H](C(C)C)NC(=O)[C@H](Cc3ccc(-c4ccccc4)cc3)NC(=O)[C@H](C(C)C)NC2=O)c1` [Compound 2027] ({CH2CO}-[Dap]Y(Carboxymethyl)D[Phe(3-Me)]V[Bip]V[Orn][dCba][Dab][Cha]VKC[Dab][Aun]-OH; thioether N-14), the IC50 was found to be 15 nM.

As for `CCC(C)[C@@H]1NC(=O)[C@H](Cc2ccc(-c3ccccc3)cc2)NC(=O)[C@H](C(C)C)NC(=O)[C@H](Cc2c[nH]c3ccccc23)NC(=O)[C@H](CC(=O)O)NC(=O)[C@H](Cc2ccc(OCC(=O)O)cc2)NC(=O)[C@H](CCCCNC(=N)N)NC(=O)CSC[C@@H](C(=O)N[C@H](CO)C(=O)NCCOCCOCC(=O)NCCCCCCCCCCC(=O)O)NC(=O)[C@H](CO)NC(=O)[C@H](C(C)C)NC(=O)[C@H](CC2CCCCC2)NC(=O)[C@H](CCN)NC(=O)[C@@H](CC(C)C)NC(=O)[C@H](CCCN)NC1=O` (stereo partly drawn) [Compound 3060] ({CH2CO}-[hArg]Y(Carboxymethyl)DWV[Bip][Ile(3ξ)][Orn][dL][Dab][Cha]VSC[dS][AEEA][Aun]-OH; thioether N-14), the half-maximal inhibitory concentration (IC50) was 17.8 nM.

For the compound `Cc1cccc(C[C@@H]2NC(=O)[C@H](CC(=O)O)NC(=O)[C@H](Cc3ccc(OCC(=O)O)cc3)NC(=O)[C@H](Cc3ccncc3)NC(=O)CSC[C@@H](C(=O)N[C@@H](CCN)C(=O)NCCOCCOCC(=O)NCCCCCCCCCCC(=O)O)NC(=O)[C@H](CN)NC(=O)[C@H](C(C)(C)O)NC(=O)[C@H](CC3CCCCC3)NC(=O)[C@H](CCN)NC(=O)[C@@H](CC(C)C)NC(=O)[C@H](CCCN)NC(=O)[C@H](Cc3ccc(OCC(=O)O)cc3)NC(=O)[C@H](Cc3ccc(-c4ccccc4)cc3)NC(=O)[C@H](Cc3ccc(OCC(=O)O)cc3)NC2=O)c1` [Compound 2022] ({CH2CO}-[4Pal]Y(Carboxymethyl)D[Phe(3-Me)]Y(Carboxymethyl)[Bip]Y(Carboxymethyl)[Orn][dL][Dab][Cha][Val(3-OH)][Dap]C[Dab][AEEA][Aun]-OH; thioether N-14), the IC50 amounted to 59.5 nM.

As to `CC(C)C[C@H]1NC(=O)[C@H](CCN)NC(=O)[C@H](C(C)C)NC(=O)[C@H](Cc2ccc(-c3ccccc3)cc2)NC(=O)[C@H](C(C)C)NC(=O)[C@H](Cc2c[nH]c3ccccc23)NC(=O)[C@H](CC(=O)O)NC(=O)[C@H](Cc2ccc(OCC(=O)O)cc2)NC(=O)[C@H](C(C)O)NC(=O)CSC[C@@H](C(=O)N[C@@H](CCN)C(=O)NCCCCCCCCCCC(=O)O)NC(=O)[C@H](CCCNC(N)=O)NC(=O)[C@H](C(C)C)NC(=O)[C@H](CC2CCCCC2)NC(=O)[C@H](CCN)NC1=O` (stereo partly drawn) [Compound 3253] ({CH2CO}-[Thr(3ξ)]Y(Carboxymethyl)DWV[Bip]V[Dab][dL][Dab][Cha]V[Cit]C[Dab][Aun]-OH; thioether N-14), the IC50 worked out at 8.8 nM.

Turning to `Cc1cccc(C[C@@H]2NC(=O)[C@H](CC(=O)O)NC(=O)[C@H](Cc3ccc(OCC(=O)O)cc3)NC(=O)[C@H](C(C)O)NC(=O)CSC[C@@H](C(=O)N[C@@H](CCCCN)C(=O)NCCCCCCCCCCC(=O)O)NC(=O)[C@H](C(C)O)NC(=O)[C@H](C(C)C)NC(=O)[C@H](CC3CCCCC3)NC(=O)[C@H](CCN)NC(=O)[C@@H](CC(C)C)NC(=O)[C@H](CCCN)NC(=O)[C@H](CCCNC(N)=O)NC(=O)[C@H](Cc3ccc(-c4ccccc4)cc3)NC(=O)[C@H](C(C)C)NC2=O)c1` (stereo partly drawn) [Compound 3467] ({CH2CO}-[Thr(3ξ)]Y(Carboxymethyl)D[Phe(3-Me)]V[Bip][Cit][Orn][dL][Dab][Cha]V[Thr(3ξ)]CK[Aun]-OH; thioether N-14), the IC50 stood at 33 nM.

With `CC(C)C[C@H]1NC(=O)[C@H](CCCN)NC(=O)[C@H](C(C)C)NC(=O)[C@H](Cc2ccc(-c3ccccc3)cc2)NC(=O)[C@H](C(C)C)NC(=O)[C@H](Cc2c[nH]c3ccccc23)NC(=O)[C@H](CC(=O)O)NC(=O)[C@H](Cc2ccc(C(=O)O)cc2)NC(=O)[C@H](Cc2ccncc2)NC(=O)CSC[C@@H](C(=O)NCC(=O)NCCOCCOCC(=O)N[C@@H](CCCN)C(=O)NCCCCCCCCCCC(=O)O)NC(=O)[C@H](CN)NC(=O)[C@H](C(C)C)NC(=O)[C@H](CC2CCCCC2)NC(=O)[C@H](CCN)NC1=O` [Compound 3234] ({CH2CO}-[4Pal][Phe(4-COOH)]DWV[Bip]V[Orn][dL][Dab][Cha]V[Dap]CG[AEEA][Orn][Aun]-OH; thioether N-14), the IC50 turned out to be 7.3 nM.

Take `CC(=O)NCCCC[C@@H]1NC(=O)CSC[C@@H](C(=O)N[C@@H](CCN)C(=O)NCCCCCCCCCCC(=O)O)NC(=O)[C@H](C(C)O)NC(=O)[C@H](C(C)C)NC(=O)[C@H](CC2CCCCC2)NC(=O)[C@H](CCN)NC(=O)[C@@H](CC(C)C)NC(=O)[C@H](CCCN)NC(=O)[C@H](CCCNC(N)=O)NC(=O)[C@H](Cc2ccc(-c3ccccc3)cc2)NC(=O)[C@H](C(C)C)NC(=O)[C@H](Cc2cccc(C)c2)NC(=O)[C@H](CC(=O)O)NC(=O)[C@H](Cc2ccc(OCC(=O)O)cc2)NC1=O` (stereo partly drawn) [Compound 3538] ({CH2CO}-K(Ac)Y(Carboxymethyl)D[Phe(3-Me)]V[Bip][Cit][Orn][dL][Dab][Cha]V[Thr(3ξ)]C[Dab][Aun]-OH; thioether N-14): the 50% inhibitory concentration (IC50) worked out at 26.3 nM.
